According to article PMC8859858 (Nanoscale, 2019):

Biological target: AdhD (AdhD-SP) (Pyrococcus furiosus, UniProt Q8TZM9)
Assay: NADH disappearance at […] nm, Michaelis-Menten fit
Type: biochemical
Conditions: free enzyme; NADH (A340 ~1.8); 100 mM sodium phosphate pH 6.2; 50 °C

For `CC(=O)C(C)O` (stereo not shown) [acetoin], the KM was “The dependence of the reaction rate on acetoin followed Michaelis-Menten kinetics”.
